Experimental findings from US20200069691A1, “HETEROCYCLIC COMPOUNDS AS HIV PROTEASE INHIBITORS” (Merck Sharp & Dohme Corp., priority 2016, published 2020) are described below.

In the assay the target is T1, wild-type HIV-1 protease (Human immunodeficiency virus type 1 group M subtype B, UniProt P04585).
T1 construct: Escherichia coli expressed wild-type HIV-1 protease protein
The assay is described as follows: Assay for Inhibition of Microbial Expressed HIV Protease (peptide substrate cleavage, LC-MS/MS readout). The assay is classed as biochemical. As to conditions: E. coli expressed wild-type HIV-1 protease, mean of at least two independent experiments, read-out: HIV Pr Enzyme HIV1 PR IC50. In outline:
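E. coli-expressed wild-type HIV-1 protease ([…]) was preincubated with inhibitor 30 min at room temperature in pH 5.5 acetate buffer (100 mM NaCl, 0.1% BSA). Then 400 μM octapeptide substrate was added and reacted 1 h at 30 °C; inhibition came from LC-MS/MS product peak areas, mean of ≥2 experiments.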

A word on the IC50: it is the midpoint of a concentration-inhibition curve. As to `N=C1NC(c2ccc(F)cc2)(c2ccc(F)cc2)C(=O)N1Cc1cncc(C(=O)N2CCN(C(=O)OCc3ccccc3)CC2)c1` [Compound 395, benzyl 4-[(5-{[4,4-bis(4-fluorophenyl)-2-imino-5-oxoimidazolidin-1-yl]methyl}pyridin-3-yl)carbonyllpiperazine-1-carboxylate], the IC50 came to 97.4 nM.
As for `N=C1NC(c2ccc(F)cc2)(c2ccc(F)cc2)C(=O)N1Cc1cccc(C(=O)N2Cc3nccnc3C2)c1` [Compound 200, 3-[3-(5,7-dihydro-6H-pyrrolo[3,4-b]pyrazin-6-ylcarbonyl)benzyl]-5,5-bis(4-fluorophenyl)-2-iminoimidazolidin-4-one], the IC50 is 14.2 nM.
As for `N=C1N[C@](CCCC(F)(F)F)(c2ccc(F)cc2)C(=O)N1Cc1ccc(C(F)(F)F)c(C(=O)N2Cc3cnc(-c4cccnc4)nc3C2)c1` [Compound 47, (5R)-5-(4-fluorophenyl)-2-imino-3-{3-[(2-pyridin-3-yl-5,7-dihydro-6H-pyrrolo[3,4-d]pyrimidin-6-yl)carbonyl]-4-(trifluoromethyl)-benzyl}-5-(4,4,4-trifluorobutyl)-imidazolidin-4-one], the figure is 4.91 nM.
As for `N=C1NC(c2ccc(F)cc2)(c2cccc(Br)c2)C(=O)N1Cc1cccc(C(=O)N2Cc3[nH]nc(C(F)(F)F)c3C2)c1` (stereo not shown) [Compound 212, 5-(3-bromophenyl)-5-(4-fluorophenyl)-2-imino-3-(3-{[3-(trifluoromethyl)-4,6-dihydropyrrolo [3,4-c]pyrazol-5(1H)-yl]carbonyl}benzyl) imidazolidin-4-one], the figure is 9.49 nM; as for `Cc1cc2c(cn1)CN(C(=O)c1cccc(CN3C(=N)NC(c4ccccc4)(c4ccccc4)C3=O)c1)C2` [Compound 214, 2-imino-3-{3-[(6-methyl-1,3-dihydro-2H-pyrrolo[3,4-c]pyridin-2-yl)carbonyl]benzyl}-5,5-diphenylimidazolidin-4-one], 9.81 nM.
Take `COc1ccc(CN2C(=N)NC(c3ccccc3)(c3ccccc3)C2=O)cc1C(=O)N1Cc2cccc(F)c2C1` [Compound 372, 3-{3-[(4-fluoro-1,3-dihydro-2H-isoindol-2-yl)carbonyl]-4-methoxybenzyl}-2-imino-5,5-diphenylimidazolidin-4-one]: the IC50 was found to be 6.91 nM.
Then `CC(C)CC(c1ccc(C(F)(F)F)c(C(=O)N2CCn3c(nnc3C(F)(F)F)C2)c1)N1C(=N)N[C@@](C[C@@H]2CCOC2)(c2ccc(F)cc2)C1=O` (stereo partly drawn) [Compound 29, (5S)-5-(4-fluorophenyl)-2-imino-3-{3-methyl-1-[4-(trifluoromethyl)-3-{[3-(trifluoromethyl)-5,6-dihydro-[1,2,4]triazolo[4,3-a]pyrazin-7(8H)-yl]carbonyl}phenyl]butyl}-5-[(3R)-tetrahydrofuran-3-ylmethyl]-imidazolidin-4-one], with 3.07 nM.
Then `N=C1NC(c2ccccc2)(c2ccccc2)C(=O)N1Cc1cccc(C(=O)N2CCn3cc(C(=O)C4CC4)nc3C2)c1` [Compound 250, 3-(3-{[2-(cyclopropylcarbonyl)-5,6-dihydroimidazo [1,2-a]pyrazin-7(8H)-yl]carbonyl}benzyl)-2-imino-5,5-diphenylimidazolidin-4-one], with 18.9 nM.
As for `N=C1NC(c2ccccc2)(c2ccccc2)C(=O)N1Cc1cc(F)cc(C(=O)N2Cc3cncnc3C2)c1` [Compound 258, 3-[3-(5,7-dihydro-6H-pyrrolo[3,4-d]pyrimidin-6-ylcarbonyl)-5-fluorobenzyl]-2-imino-5,5-diphenylimidazolidin-4-one], the IC50 was 22.1 nM.
With `N=C1NC(c2ccccc2)(c2ccccc2)C(=O)N1Cc1cccc(C(=O)N2CCc3ccccc32)c1` [Compound 312, 3-[3-(2,3-dihydro-1H-indol-1-ylcarbonyl)benzyl]-2-imino-5,5-diphenylimidazolidin-4-one], the IC50 is 52.1 nM.
